From ChEMBL document CHEMBL1122667, “Acetylation of some novel hemicholinium compounds by soluble choline acetyltransferase: structure-activity relationships” (J Med Chem, 1984)

T1: Choline O-acetyltransferase (Rattus norvegicus) (UniProt P32738)
T1 sequence (whole entry): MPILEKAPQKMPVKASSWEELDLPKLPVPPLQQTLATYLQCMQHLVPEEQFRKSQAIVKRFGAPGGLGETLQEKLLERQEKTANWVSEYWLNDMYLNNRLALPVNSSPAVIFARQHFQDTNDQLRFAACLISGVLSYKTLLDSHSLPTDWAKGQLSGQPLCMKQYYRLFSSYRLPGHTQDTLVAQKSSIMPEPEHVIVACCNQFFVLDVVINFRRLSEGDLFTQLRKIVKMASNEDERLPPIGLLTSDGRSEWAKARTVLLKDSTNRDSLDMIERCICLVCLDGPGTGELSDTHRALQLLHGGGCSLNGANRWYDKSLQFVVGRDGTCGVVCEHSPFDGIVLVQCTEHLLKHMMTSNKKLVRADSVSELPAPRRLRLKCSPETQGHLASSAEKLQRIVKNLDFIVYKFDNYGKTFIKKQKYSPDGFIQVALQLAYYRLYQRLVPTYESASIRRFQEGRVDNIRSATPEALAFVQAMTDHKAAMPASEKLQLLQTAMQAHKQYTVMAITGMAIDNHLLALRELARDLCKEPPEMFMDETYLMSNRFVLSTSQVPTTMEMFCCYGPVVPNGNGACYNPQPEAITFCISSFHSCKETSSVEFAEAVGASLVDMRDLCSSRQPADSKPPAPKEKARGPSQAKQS


Tests used:
[1] = molecular target: T1, Choline O-acetyltransferase (Rattus norvegicus); experiment: Rate of acetylation of 13.0+/-1.1 umol compound by 1 g of choline acetyltransferase (ChAc) by incubating for 10 minutes at 37 degrees Centigrade; set-up: reference not given here
[2] = substrate: C[N+](C)(C)CCO; experiment: (§1) Apparent Michaelis-Menten Constant (KM) for the acetylation of compound was calculated from Linewear-Burke plots by incubating for 10 minutes at 37 degrees Centigrade
[3] = substrate: C[N+]1(C)CCOC(O)(c2ccc(-c3ccc(C4(O)C[N+](C)(C)CCO4)cc3)cc2)C1; experiment: as §1
[4] = substrate: C[N+]1(C)CCOC(O)(c2ccc(CCCc3ccc(C4(O)C[N+](C)(C)CCO4)cc3)cc2)C1; experiment: as §1

Molecule	Acetylation [1] [%]	further results
C[N+]1(C)CCOC(O)(c2ccc(CCCCc3ccc(C4(O)C[N+](C)(C)CCO4)cc3)cc2)C1 (centres undefined)	5	–
C[N+](C)(C)CCO	100	–
C[N+]1(C)CCOC(O)(c2ccc(-c3ccc(C4(O)C[N+](C)(C)CCO4)cc3)cc2)C1 (centres undefined)	28	–
C[N+]1(C)CCOC(O)(c2ccc(CCc3ccc(C4(O)C[N+](C)(C)CCO4)cc3)cc2)C1 (centres undefined)	3	–
C[N+]1(C)CCOC(O)(c2ccc(CCCc3ccc(C4(O)C[N+](C)(C)CCO4)cc3)cc2)C1 (centres undefined)	28	–
C[N+]1(C)CCOC(O)(c2ccc(Cc3ccc(C4(O)C[N+](C)(C)CCO4)cc3)cc2)C1 (centres undefined)	4	–
Choline O-acetyltransferase (Rattus norvegicus), P32738 (protein) MPILEKAPQKMPVKASSWEELDLPKLPVPPLQQTLATYLQCMQHLVPEEQFRKSQAIVKRFGAPGGLGETLQEKLLERQEKTANWVSEYWLNDMYLNNRLALPVNSSPAVIFARQHFQDTNDQLRFAACLISGVLSYKTLLDSHSLPTDWAKGQLSGQPLCMKQYYRLFSSYRLPGHTQDTLVAQKSSIMPEPEHVIVACCNQFFVLDVVINFRRLSEGDLFTQLRKIVKMASNEDERLPPIGLLTSDGRSEWAKARTVLLKDSTNRDSLDMIERCICLVCLDGPGTGELSDTHRALQLLHGGGCSLNGANRWYDKSLQFVVGRDGTCGVVCEHSPFDGIVLVQCTEHLLKHMMTSNKKLVRADSVSELPAPRRLRLKCSPETQGHLASSAEKLQRIVKNLDFIVYKFDNYGKTFIKKQKYSPDGFIQVALQLAYYRLYQRLVPTYESASIRRFQEGRVDNIRSATPEALAFVQAMTDHKAAMPASEKLQLLQTAMQAHKQYTVMAITGMAIDNHLLALRELARDLCKEPPEMFMDETYLMSNRFVLSTSQVPTTMEMFCCYGPVVPNGNGACYNPQPEAITFCISSFHSCKETSSVEFAEAVGASLVDMRDLCSSRQPADSKPPAPKEKARGPSQAKQS	–	Km [2]: 290 µM; Km [3]: 1210 µM; Km [4]: 1270 µM
